Measurements as given in patent US10611764B2 (Wisconsin Alumni Research Foundation, priority 2017, dated 2020).
Substitutions are numbered along the chain they refer to.

Key:
[1] = Solubility in commonly used (NMR) solvents; assay type: physicochemical
mAHR Q377A mutant = target: T1, mAHR Q377A mutant (Mus musculus, UniProt P30561, Q377A); test: Luciferase reporter gene assay, mutant mAHR Q377A in COS-1 cells; assay type: cell-based; details: relative to WT mAHR
T1 construct: expressed in transfected cells; host or cells: COS-1
T1 sequence (P30561 10-805 Q377A limits assumed): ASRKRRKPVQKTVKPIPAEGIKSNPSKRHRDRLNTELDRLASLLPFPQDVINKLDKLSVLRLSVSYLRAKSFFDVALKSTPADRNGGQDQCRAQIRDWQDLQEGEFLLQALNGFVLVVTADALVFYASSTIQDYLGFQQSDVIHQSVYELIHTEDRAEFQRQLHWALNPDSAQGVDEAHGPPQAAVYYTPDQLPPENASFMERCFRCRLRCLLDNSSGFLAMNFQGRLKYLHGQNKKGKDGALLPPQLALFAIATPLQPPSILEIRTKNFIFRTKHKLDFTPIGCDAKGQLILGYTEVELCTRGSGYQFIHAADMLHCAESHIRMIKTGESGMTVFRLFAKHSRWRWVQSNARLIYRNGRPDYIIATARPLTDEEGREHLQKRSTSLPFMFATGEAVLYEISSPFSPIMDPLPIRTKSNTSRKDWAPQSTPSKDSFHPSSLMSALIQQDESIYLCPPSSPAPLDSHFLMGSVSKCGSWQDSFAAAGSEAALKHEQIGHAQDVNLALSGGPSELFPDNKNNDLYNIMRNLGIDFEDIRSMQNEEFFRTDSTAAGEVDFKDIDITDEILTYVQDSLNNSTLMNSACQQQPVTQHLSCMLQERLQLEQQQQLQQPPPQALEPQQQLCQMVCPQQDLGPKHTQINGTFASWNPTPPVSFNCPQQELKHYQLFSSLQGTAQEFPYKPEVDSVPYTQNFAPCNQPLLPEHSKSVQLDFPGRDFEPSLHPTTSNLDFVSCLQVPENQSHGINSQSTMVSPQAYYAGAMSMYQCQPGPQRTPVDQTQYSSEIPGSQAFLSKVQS

mAHR H285A mutant = test: Luciferase reporter gene assay, mutant mAHR H285A in COS-1 cells; assay type: cell-based, mouse; details: relative to WT mAHR
[2] = tested on: Salmonella typhimurium tester strains (TA97a, TA98, TA100, and TA1535) and Escherichia coli strain (WP2 uvrA pKM101); test: Ames screening; details: with and without S9, 7.8-250 ng/well
Protocol: The Ames screening detects both frameshift and base-pair substitution mutations using 4 Salmonella typhimurium tester strains (TA97a, TA98, TA100, and TA1535) and 1 Escherichia coli strain (WP2 uvrA pKM101). Strains TA97a and TA98 detect frameshift mutations, and TA100, TA1535, and WP2 uvrA pKM101 detect base-pair substitution mutations. This scaled-down Ames test uses minimal compound, is conducted with and without metabolic activation (S9 fraction), and uses multiwell plates. The Ames screen for TEACOP 270 was tested in duplicate with strains TA97a, TA98, TA100, TA1535, and WP2 uvrA pKM101 in the presence and absence of a metabolic activation system (Aroclor™ 1254 induced rat liver S9 microsomal fraction) at 7.8, 15.5, 31, 62.5, 125, and 250 ng/well. Positive control compounds were used at 4 different concentrations to ensure the assay system was sensitive to known mutagenic compounds. DMSO was used as the vehicle control.

[3] = target: T2, mouse AHR (mAHR B1-allele) (Mus musculus, UniProt P30561, M589L/N533S/P471L); test: cell-based
T2 sequence (P30561 10-805 P471L/N533S/M589L): T1 sequence (P30561 10-805 Q377A limits assumed) with A368Q, P462L, N524S, M580L
Protocol: The wild type and mutant mAHR were cloned into the XhoI/SalI cloning sites of pTARGET (Promega, Madison, Wis.) using routine PCR and molecular cloning procedures using the pSport-mAHR plasmid (PL65) as template (Dolwick, Swanson et al. 1993). For recombinant expression of mAHR, COS-1 cells were cultured in 6 cm dishes and transfected with 2 μg of wild-type or mutant mAHR expression vector. Twenty-four hours after transfection, cells were collected, and the whole cell extracts were prepared by celLytic M reagent (Sigma-Aldrich, St Louis, Mo.). 100 μg of whole cell extract was analyzed by western blot using antibodies that specifically recognize the mAHR (bear-2) and β-actin (Sigma).
COS-1 cells were cultured in 96-well plates and transiently transfected with pTarget vector containing the expression cassette of wild-type or mutant mAHR, or empty vector (3 ng), together with pGudLu6.1 DREs-driven luciferase reporter vector (14 ng) (Han, Nagy et al. 2004) and TK-renilla luciferase vector (3 ng) (Invitrogen, Carlsbad Calif.). […] The expressed luciferase activity was measured by ENSPIRE plate reader (Perkin Elmer, USA). Data analysis and simulation of dose response curves were performed using GraphPad Prism 5 (GraphPad software Inc., La Jolla, Calif.). The experiments were performed in triplicate and repeated at least three times. Representative results of one repeat are shown as mean±SEM.

C1=Cc2c3ccccc3nc3nc4ccccc4c(c23)N1 [Compound 4]
solubility in CDCl3 ([1]; TFA salt): good solubility | solubility ([1]; free base form): poor solubility | solubility in commonly used solvents (CDCl3, CD3OD, DMSO-d6, etc) ([1]; isolated material): very poor solubility | effect of Q377A mutation on AHR induction activity (mAHR Q377A mutant): barely affected | effect of H285A mutation on AHR induction activity (mAHR H285A mutant): drastically affected | mutagenicity (Ames test) [2]: No mutagenicity is detected | EC50 [3]: 0.378 nM | fold lower measured activity than Compound 4 ([3]; purified sample largely contaminated by lipids, FIG. 5c): more than 10 fold
